± gives the expanded uncertainty stated by the source.
Details: Liquid; for vapor or sublimation pressure: Ebulliometric method (Recirculating still); for Normal boiling temperature: Siwoloboff method

Question: Which “vapor or sublimation pressure” value (394.65 K) does the source give for CCO[Si](C)(OCC)c1ccc(C)cc1 [diethoxy(methyl)(p-tolyl)silane] here?
Answer: The value was 2 ± 0.04 kPa.

Question: And the “vapor or sublimation pressure” value (402.86 K)?
Answer: The value was 3 ± 0.05 kPa.

Question: What about the “vapor or sublimation pressure” value (409.39 K) of the same compound?
Answer: Its value is 4 ± 0.07 kPa.

Question: And the “vapor or sublimation pressure” value (414.72 K)?
Answer: Its value is 5 ± 0.09 kPa.

Question: And the “vapor or sublimation pressure” value (419.19 K)?
Answer: The value was 6 ± 0.11 kPa.

Question: And the “vapor or sublimation pressure” value (423.25 K)?
Answer: Its value is 7 ± 0.13 kPa.

Question: What about the “vapor or sublimation pressure” value (429.82 K) of the same compound?
Answer: Its value is 9 ± 0.16 kPa.

Question: And the “vapor or sublimation pressure” value (435.35 K)?
Answer: Its value is 11 ± 0.2 kPa.

Question: And the “vapor or sublimation pressure” value (442.33 K)?
Answer: Its value is 14 ± 0.25 kPa.

Question: And the “vapor or sublimation pressure” value (448.16 K)?
Answer: Its value is 17 ± 0.31 kPa.

Question: What about the “vapor or sublimation pressure” value (453.16 K) of the same compound?
Answer: Its value is 20 ± 0.36 kPa.

Question: And the “vapor or sublimation pressure” value (457.61 K)?
Answer: Its value is 23 ± 0.41 kPa.

Question: And the “vapor or sublimation pressure” value (461.72 K)?
Answer: The value was 26 ± 0.47 kPa.

Question: And the “vapor or sublimation pressure” value (465.36 K)?
Answer: The value was 29 ± 0.52 kPa.

Question: What about the “vapor or sublimation pressure” value (468.68 K) of the same compound?
Answer: Its value is 32 ± 0.58 kPa.

Question: What about the “vapor or sublimation pressure” value (471.81 K) of the same compound?
Answer: The value was 35 ± 0.63 kPa.

Question: What about the “vapor or sublimation pressure” value (474.73 K) of the same compound?
Answer: The value was 38 ± 0.68 kPa.

Question: What about the “vapor or sublimation pressure” value (477.27 K) of the same compound?
Answer: The value was 41 ± 0.74 kPa.

Question: What about the “vapor or sublimation pressure” value (479.82 K) of the same compound?
Answer: The value was 44 ± 0.79 kPa.

Question: What about the “vapor or sublimation pressure” value (482.24 K) of the same compound?
Answer: The value was 47 ± 0.85 kPa.

Question: What about the “vapor or sublimation pressure” value (484.62 K) of the same compound?
Answer: Its value is 50 ± 0.9 kPa.

Question: And the “vapor or sublimation pressure” value (486.87 K)?
Answer: Its value is 53 ± 0.95 kPa.

Question: What about the Normal boiling temperature of the same compound?
Answer: The Normal boiling temperature was 239.57 ± 1.6 °C.

Question: Which “vapor or sublimation pressure” value (393.45 K) does the source give for CCO[Si](C)(OCC)c1ccccc1C [diethoxy(methyl)(o-tolyl)silane] here?
Answer: The value was 2 ± 0.04 kPa.

Question: What about the “vapor or sublimation pressure” value (401.5 K) of the same compound?
Answer: The value was 3 ± 0.05 kPa.

Question: What about the “vapor or sublimation pressure” value (407.98 K) of the same compound?
Answer: Its value is 4 ± 0.07 kPa.

Question: What about the “vapor or sublimation pressure” value (413.33 K) of the same compound?
Answer: Its value is 5 ± 0.09 kPa.

Question: And the “vapor or sublimation pressure” value (417.79 K)?
Answer: The value was 6 ± 0.11 kPa.

Question: And the “vapor or sublimation pressure” value (421.8 K)?
Answer: The value was 7 ± 0.13 kPa.

Question: What about the “vapor or sublimation pressure” value (431.54 K) of the same compound?
Answer: The value was 10 ± 0.18 kPa.

Question: And the “vapor or sublimation pressure” value (439.05 K)?
Answer: The value was 13 ± 0.23 kPa.

Question: And the “vapor or sublimation pressure” value (445.46 K)?
Answer: The value was 16 ± 0.29 kPa.

Question: And the “vapor or sublimation pressure” value (450.67 K)?
Answer: The value was 19 ± 0.34 kPa.

Question: And the “vapor or sublimation pressure” value (455.4 K)?
Answer: The value was 22 ± 0.4 kPa.

Question: What about the “vapor or sublimation pressure” value (459.55 K) of the same compound?
Answer: The value was 25 ± 0.45 kPa.

Question: What about the “vapor or sublimation pressure” value (463.3 K) of the same compound?
Answer: Its value is 28 ± 0.5 kPa.

Question: And the “vapor or sublimation pressure” value (466.73 K)?
Answer: Its value is 31 ± 0.56 kPa.

Question: What about the “vapor or sublimation pressure” value (469.94 K) of the same compound?
Answer: Its value is 34 ± 0.61 kPa.

Question: What about the “vapor or sublimation pressure” value (472.92 K) of the same compound?
Answer: The value was 37 ± 0.67 kPa.

Question: What about the “vapor or sublimation pressure” value (475.72 K) of the same compound?
Answer: Its value is 40 ± 0.72 kPa.

Question: What about the “vapor or sublimation pressure” value (478.35 K) of the same compound?
Answer: Its value is 43 ± 0.77 kPa.

Question: And the “vapor or sublimation pressure” value (480.89 K)?
Answer: Its value is 46 ± 0.83 kPa.

Question: And the “vapor or sublimation pressure” value (483.26 K)?
Answer: The value was 49 ± 0.88 kPa.

Question: What about the Normal boiling temperature of the same compound?
Answer: Its Normal boiling temperature is 239.83 ± 1.6 °C.

Question: Which “vapor or sublimation pressure” value (380.76 K) does the source give for CN1CCCC1=O [N-methylpyrrolidone] here?
Answer: The value was 4.742 ± 0.086 kPa.

Question: What about the “vapor or sublimation pressure” value (388.05 K) of the same compound?
Answer: Its value is 6.361 ± 0.12 kPa.

Question: And the “vapor or sublimation pressure” value (400.39 K)?
Answer: The value was 10.29 ± 0.19 kPa.

Question: What about the “vapor or sublimation pressure” value (411.34 K) of the same compound?
Answer: Its value is 15.22 ± 0.27 kPa.

Question: What about the “vapor or sublimation pressure” value (420.9 K) of the same compound?
Answer: The value was 20.97 ± 0.38 kPa.

Question: What about the “vapor or sublimation pressure” value (432.23 K) of the same compound?
Answer: The value was 30.08 ± 0.54 kPa.

Question: What about the “vapor or sublimation pressure” value (441.78 K) of the same compound?
Answer: The value was 39.96 ± 0.72 kPa.

Question: And the “vapor or sublimation pressure” value (451.08 K)?
Answer: The value was 52.18 ± 0.94 kPa.

Question: What about the “vapor or sublimation pressure” value (457.44 K) of the same compound?
Answer: Its value is 62.11 ± 1.1 kPa.

Question: What about the “vapor or sublimation pressure” value (475.79 K) of the same compound?
Answer: The value was 99.4 ± 1.8 kPa.

Question: And the Normal boiling temperature?
Answer: The Normal boiling temperature was 202.14 ± 1.6 °C.

Question: For CCO[Si](C)(OCC)c1cccc(C)c1 [diethoxy(methyl)(m-tolyl)silane], which “vapor or sublimation pressure” value (391.91 K) is on record?
Answer: The value was 2 ± 0.04 kPa.

Question: What about the “vapor or sublimation pressure” value (400.12 K) of the same compound?
Answer: Its value is 3 ± 0.05 kPa.

Question: And the “vapor or sublimation pressure” value (406.47 K)?
Answer: The value was 4 ± 0.07 kPa.

Question: What about the “vapor or sublimation pressure” value (411.84 K) of the same compound?
Answer: Its value is 5 ± 0.09 kPa.

Question: What about the “vapor or sublimation pressure” value (416.3 K) of the same compound?
Answer: The value was 6 ± 0.11 kPa.

Question: What about the “vapor or sublimation pressure” value (420.23 K) of the same compound?
Answer: Its value is 7 ± 0.13 kPa.

Question: What about the “vapor or sublimation pressure” value (426.81 K) of the same compound?
Answer: Its value is 9 ± 0.16 kPa.

Question: And the “vapor or sublimation pressure” value (432.31 K)?
Answer: Its value is 11 ± 0.2 kPa.

Question: And the “vapor or sublimation pressure” value (439.13 K)?
Answer: The value was 14 ± 0.25 kPa.

Question: And the “vapor or sublimation pressure” value (444.83 K)?
Answer: The value was 17 ± 0.31 kPa.

Question: What about the “vapor or sublimation pressure” value (449.84 K) of the same compound?
Answer: Its value is 20 ± 0.36 kPa.

Question: And the “vapor or sublimation pressure” value (454.26 K)?
Answer: The value was 23 ± 0.41 kPa.

Question: And the “vapor or sublimation pressure” value (458.23 K)?
Answer: Its value is 26 ± 0.47 kPa.

Question: What about the “vapor or sublimation pressure” value (461.73 K) of the same compound?
Answer: The value was 29 ± 0.52 kPa.

Question: What about the “vapor or sublimation pressure” value (465.1 K) of the same compound?
Answer: Its value is 32 ± 0.58 kPa.

Question: And the “vapor or sublimation pressure” value (468.22 K)?
Answer: The value was 35 ± 0.63 kPa.

Question: What about the “vapor or sublimation pressure” value (471.02 K) of the same compound?
Answer: Its value is 38 ± 0.68 kPa.

Question: What about the “vapor or sublimation pressure” value (473.69 K) of the same compound?
Answer: Its value is 41 ± 0.74 kPa.

Question: What about the “vapor or sublimation pressure” value (476.21 K) of the same compound?
Answer: Its value is 44 ± 0.79 kPa.

Question: And the “vapor or sublimation pressure” value (478.56 K)?
Answer: Its value is 47 ± 0.85 kPa.

Question: What about the “vapor or sublimation pressure” value (480.85 K) of the same compound?
Answer: Its value is 50 ± 0.9 kPa.

Question: And the “vapor or sublimation pressure” value (483.08 K)?
Answer: Its value is 53 ± 0.95 kPa.

Question: And the “vapor or sublimation pressure” value (485.67 K)?
Answer: The value was 57 ± 1 kPa.

Question: And the “vapor or sublimation pressure” value (488.08 K)?
Answer: Its value is 61 ± 1.1 kPa.

Question: And the Normal boiling temperature?
Answer: The Normal boiling temperature was 235.8 ± 1.6 °C.
